Where a name gives a salt, the structure may show the parent alone. Read-outs that look alike come from different tables or passages of the source.
Tests used:
5-lipoxygenase [1] = target: T1, 5-lipoxygenase (Homo sapiens, UniProt P09917); experiment: Inhibition of 5-lipoxygenase (5-HETE biosynthesis) in human polymorphonuclear leukocytes; type: cell-based; conditions: human PMN's, 5-HETE band vs control; test concentration 1 microM; read-out: Inhibition of 5-LO % at 1 M
T1 construct: Human PMN's (5 x 10⁶ cells/0.5 mL) in pH 7.2 phosphate buffer; endogenous in cells; host or cells: human polymorphonuclear leukocytes (PMN)
T1 sequence (P09917 1-674): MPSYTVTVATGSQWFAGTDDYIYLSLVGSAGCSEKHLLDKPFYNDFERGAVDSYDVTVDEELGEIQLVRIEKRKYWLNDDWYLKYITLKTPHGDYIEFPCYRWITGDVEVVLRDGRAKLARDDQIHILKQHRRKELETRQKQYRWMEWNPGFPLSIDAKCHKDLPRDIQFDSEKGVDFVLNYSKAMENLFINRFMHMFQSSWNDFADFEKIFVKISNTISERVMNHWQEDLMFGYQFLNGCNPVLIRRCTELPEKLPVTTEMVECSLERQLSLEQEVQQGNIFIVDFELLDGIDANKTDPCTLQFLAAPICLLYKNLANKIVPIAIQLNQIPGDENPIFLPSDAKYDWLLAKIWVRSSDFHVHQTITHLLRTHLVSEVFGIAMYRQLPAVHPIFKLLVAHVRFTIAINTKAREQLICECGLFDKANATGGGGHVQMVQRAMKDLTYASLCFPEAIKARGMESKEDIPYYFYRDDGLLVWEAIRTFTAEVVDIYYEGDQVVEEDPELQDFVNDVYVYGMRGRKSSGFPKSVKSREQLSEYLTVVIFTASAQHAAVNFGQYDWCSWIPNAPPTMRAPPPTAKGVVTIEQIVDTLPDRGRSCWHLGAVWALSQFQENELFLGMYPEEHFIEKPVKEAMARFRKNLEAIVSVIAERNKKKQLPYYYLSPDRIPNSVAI
Description: Inhibition of 5-Lipoxygenase in Human Polymorphonuclear Leukocytes (PMN's)
The inhibition of 5-lipoxygenase is measured by determining whether and to what extent test compounds inhibit the amount of 5-HETE biosynthesized by human PMN's. 5-HETE biosynthesis serves as a marker for arachidonic acid metabolism by 5-lipoxygenase.
Human PMN's (5 x 10⁶ cells/0.5 mL) in pH 7.2 phosphate buffer containing Ca²⁺ (0.6 mM) and Mg²⁺ (1.0 mM) were incubated with test compound for 15 minutes at 37°C with shaking. Calcium ionophore A23187 (0.25 mM, 0.01 mL) and [¹⁴C] arachidonic acid (0.10 microCi in 0.025 mL 0.01N NaOH) were added, and the mixture incubated another 2.5 minutes. The reaction was terminated by the addition of 0.025 mL of 1.0 N HCl. The mixture was then extracted with ethyl acetate-methylene chloride (2:3) supplemented with 12 microgram/mL cold arachidonic acid to reduce degradation of the metabolites. After concentrating the organic phase, the number of microlitres containing 5 x 10⁴ cpm was determined and that volume applied to a silica gel plate. The plate was developed in methylene-chloride-methanol-acetic acid-water (90:8:1:0.8), air dried, and counted on a Berthold linear TLC analyzer. The integrated area of the 5-HETE band was determined and compared with the control (no drug).
In cases where the IC₅₀ was determined, the result is shown in microM.

5-lipoxygenase [2] = experiment: Inhibition of antigen-induced, late phase inflammatory cell infiltration in guinea pigs; type: in vivo; conditions: 60 minutes before antigen challenge, lung lavage four hours after challenge
Excerpt: Inhibition of Antigen-Induced, Late Phase Inflammatory Cell Infiltration in Guinea Pigs
This model is used to measure the ability of a drug to inhibit 5-lipoxygenase in vivo. In addition to SRS-A, a chemotactic substance LTB₄ is also released by cells in the sensitized guinea pig lung upon stimulation by antigen. As a result there is a measurable influx of cells into the lung. Therefore, an inhibitor of 5-lipoxygenase could reduce the formation of LTB₄ and thereby reduce the cell influx into the lung.
Male outbred Hartley strain albino guinea pigs (250-300 grams) were sensitized to ovalbumin as in the procedure for inhibition of antigen-induced, SRS-A mediated bronchioconstriction in conscious guinea pigs.
Sensitized guinea pigs were fasted and pretreated with pyrilamine and indomethacin as in bronchioconstriction testing procedure. Test compounds, suspended in 1% acacia, were administered 60 minutes before antigen challenge. […] Whole lung lavage was performed with three 5 mL aliquots of normal saline buffered with sodium bicarbonate.
Total cell counts were performed on a Coulter Counter, and differential cell counts were performed. Compounds were evaluated for their ability to alter the antigen-induced total cell influx and, more specifically, neutrophil (PMN) influx.

[3] = system: A23187-Induced LTB₄ Generation; experiment: Ex vivo inhibition of A23187-induced LTB4 generation in squirrel monkey blood; parameters: species or system Squirrel Monkeys; conditions: Primates
Description: Ex Vivo Inhibition of A23187-Induced LTB₄ Generation in Squirrel Monkeys.
Incubation of squirrel monkey whole blood with calcium ionophore A23187 stimulates the production of LTB₄. This LTB₄ production can be inhibited by a lipoxygenase inhibitor in vitro by incubating the blood with the inhibitor prior to A23187 challenge. By dosing squirrel monkeys with a lipoxygenase inhibitor prior to withdrawal of a blood sample, one can determine the ability of the lipoxygenase inhibitor to be absorbed into the bloodstream by measuring the inhibition of A23187 induced LTB₄ production ex vivo.
Squirrel monkeys (400-650g) were fasted for 18 hours, anesthetized and dosed either orally or intraperitoneally with test compound. After the desired time period, blood was withdrawn from the femoral vein. The blood (0.5 mL) was heparinized, preincubated at 37°C for 5 minutes and stimulated with A23187 in DMSO to give a final concentration of 30 microM. The reaction was terminated with EGTA (final concentration 10 microM), and the blood centrifuged. Levels of LTB₄ in the plasma were then determined by radioimmunoassay.
The results shown in Table 4 illustrate the ability of a prodrug of type 2a or 2b to be absorbed after ip or po dosing compared to the parent compound 1a.

[4] = 1 h, 30 mg/kg ip, 60 min after dosing, vehicle per footnotes 2-4, read-out: Percent Inh. Monkey 2
[5] = 1 h, 30 mg/kg ip, 60 min after dosing, vehicle per footnotes 2-4, read-out: Percent Inh. Monkey 3
[6] = 1 h, 30 mg/kg ip, 60 min after dosing, vehicle per footnotes 2-4, read-out: Percent Inh. Monkey #1
[7] = 1 h, 30 mg/kg po, 60 min after dosing, vehicle per footnotes 2-4, read-out: Percent Inh. Monkey 2
[8] = 1 h, 30 mg/kg po, 60 min after dosing, vehicle per footnotes 2-4, read-out: Percent Inh. Monkey #1

| Compound | inhibition at 1 µM (5-lipoxygenase [1]) | also measured |
| --- | --- | --- |
| CCc1cc(C=Cc2cccnc2)cc(CC)c1O [Compound 1aa] | 59% |  |
| C=CCc1cc(C=Cc2cccnc2)cc(C)c1O [Compound 1ac] | 61% |  |
| COc1ccc(C=Cc2cc(C(C)C)c(O)c(C(C)C)c2)cc1 [Compound 1av] | 71% |  |
| COc1ccc(C=Cc2cc(C(C)C)c(O)c(C(C)C)c2)cc1OC [Compound 1aw] | 57% |  |
| CC(C)c1cc(C=Cc2ccc(F)cc2)cc(C(C)C)c1O [Compound 1ax] | 32% |  |
| CC(C)c1cc(C=Cc2cccc(C(F)(F)F)c2)cc(C(C)C)c1O [Compound 1ay] | 34% |  |
| COc1ccc(C=Cc2cc(F)c(O)c(OC)c2)cc1 [Compound 1az] | 63% |  |
| Cc1cc(C=Cc2ccc(Cl)s2)cc(C)c1O [Compound 1b] | 77% |  |
| Cc1ccc(C=Cc2cc(C)c(O)c(C)c2)s1 [Compound 1c] | 62% |  |
| COc1cc(C=Cc2ccc(Cl)s2)cc(C)c1O [Compound 1g] | 76% |  |
| C=CCc1cc(C=Cc2cccs2)cc(C)c1O [Compound 1h] | 70% | % Inh. PMN (5-lipoxygenase [2]; 10 mg/kg ip): 46%; % Inh. Total Cells (5-lipoxygenase [2]; 10 mg/kg ip): 55% |
| CCc1cc(C=Cc2cccs2)cc(CC)c1O [Compound 1i, 2,6-Diethyl-4-[2-(2-thienyl)ethenyl]phenol] | 70% | % Inh. PMN (5-lipoxygenase [2]; 30 mg/kg ip): 74%; % Inh. Total Cells (5-lipoxygenase [2]; 30 mg/kg ip): 51%; % Inh. PMN (5-lipoxygenase [2]; 30 mg/kg po): 51%; % Inh. Total Cells (5-lipoxygenase [2]; 30 mg/kg po): 65% |
| CC(C)c1cc(C=Cc2cccs2)cc(C(C)C)c1O [Compound 1j] | 78% |  |
| Cc1cc(C=Cc2cccs2)cc(F)c1O [Compound 1k] | 65% |  |
| Cc1cc(C=Cc2cccs2)cc(Cl)c1O [Compound 1l] | 84% |  |
| COc1cc(C=Cc2cccs2)cc(F)c1O [Compound 1m] | 65% |  |
| COc1cc(C=Cc2cccs2)cc(OC)c1O [Compound 1n] | 78% |  |
| COc1cc(C=Cc2ccsc2)cc(C)c1O [Compound 1p] | 70% |  |
| COc1cc(C=Cc2ccsc2)cc(OC)c1O [Compound 1q] | 77% |  |
| CCc1cc(C=Cc2ccsc2)cc(OC)c1O [Compound 1r] | 82% |  |
| Cc1cc(C=Cc2ccsc2)cc(Cl)c1O [Compound 1s] | 75% |  |
| COc1cc(C=Cc2ccsc2)cc(F)c1O [Compound 1t] | 59% |  |
| CCc1cc(C=Cc2ccsc2)cc(CC)c1O [Compound 1u] | 66% |  |
| C=CCc1cc(C=Cc2ccsc2)cc(C)c1O [Compound 1v] | 75% |  |
| Cc1cc(C=Cc2ccccn2)cc(C)c1O [Compound 1w] | 77% |  |
| Cc1cc(C=Cc2ccncc2)cc(C)c1O [Compound 1y] | 46% |  |
| COc1cc(C=Cc2cccnc2)cc(C)c1O [Compound 1z] | 52% |  |
| Cc1cc(C=Cc2cccs2)cc(C)c1OC(=O)CCC(=O)O [Compound 2a, 2,6-Dimethyl-4-[2-(2-thienyl)ethenyl]phenyl succinate] |  | inhibition at 30 mg/kg [3, 4]: 83%; inhibition at 30 mg/kg [3, 5]: 89%; inhibition at 30 mg/kg [3, 6]: 62%; inhibition at 30 mg/kg [3, 7]: 71%; inhibition at 30 mg/kg ([3]; 1 h, 30 mg/kg po, 60 min after dosing, vehicle per footnotes 2-4, read-out: Percent Inh. Monkey 3): 66%; inhibition at 30 mg/kg [3, 8]: 50%; inhibition at 30 mg/kg ([3]; 2 h, 30 mg/kg po, 120 min after dosing, dissolved in dilute alkali, read-out: Percent Inh. Monkey 2): 100%; inhibition at 30 mg/kg ([3]; 2 h, 30 mg/kg po, 120 min after dosing, dissolved in dilute alkali, read-out: Percent Inh. Monkey 3): 61%; inhibition at 30 mg/kg ([3]; 2 h, 30 mg/kg po, 120 min after dosing, dissolved in dilute alkali, read-out: Percent Inh. Monkey #1): 41%; inhibition at 30 mg/kg ([3]; 4 h, 30 mg/kg po, 240 min after dosing, dissolved in dilute alkali, read-out: Percent Inh. Monkey 2): 65%; inhibition at 30 mg/kg ([3]; 4 h, 30 mg/kg po, 240 min after dosing, dissolved in dilute alkali, read-out: Percent Inh. Monkey 3): 100%; inhibition at 30 mg/kg ([3]; 4 h, 30 mg/kg po, 240 min after dosing, dissolved in dilute alkali, read-out: Percent Inh. Monkey #1): 43%; % Inh. PMN (5-lipoxygenase [2]; 10 mg/kg po): 93%; % Inh. Total Cells (5-lipoxygenase [2]; 10 mg/kg po): 89% |
| Cc1cc(C=Cc2cccs2)cc(C)c1OC(=O)CN [Compound 2b, 2,6-Dimethyl-4-[2-(2-thienyl)ethenyl]phenyl glycinate hydrochloride] |  | inhibition at 30 mg/kg ([3]; 1 h, 24 mg/kg instead of 30 mg/kg po, 60 min after dosing, dissolved in distilled water, read-out: Percent Inh. Monkey 3): 33%; inhibition at 30 mg/kg [3, 4]: 56%; inhibition at 30 mg/kg [3, 5]: 69%; inhibition at 30 mg/kg [3, 6]: 78%; inhibition at 30 mg/kg [3, 7]: 54%; inhibition at 30 mg/kg [3, 8]: 62% |

From patent EP0334119A1, “Compounds for inhibiting the biosynthesis of lipoxygenase-derived metabolites of arachidonic acid” (BOEHRINGER INGELHEIM PHARMACEUTICALS INC., priority 1988, dated 1989)
